Source: patent US11046709B2, “Fused 1,4-diazepines as BET bromodomain inhibitors” (THE REGENTS OF THE UNIVERSITY OF MICHIGAN, priority 2017, dated 2021)
Like-named read-outs stand apart in the source and are kept apart here.

Tests used:
[1] = system: MDA-MB-231; test: Cell growth inhibition, 4-day proliferation assay, MDA-MB-231; type: cell-based; settings: Homo sapiens
Procedure, shortened: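 Cells seeded at 3,000-10,000/well, treated with serially diluted compounds 4 days at 37 °C, 5% CO2. Viability by WST-8 (10% v/v, 1-2 h, A450); readings normalized to DMSO-treated cells, IC50 by four-parameter nonlinear regression.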

[2] = biological target: T1, recombinant BRD4 BD2 (Homo sapiens, UniProt O60885); test: Competitive fluorescence-polarization (FP) binding assay, BRD4 BD2
T1 construct: for recombinant BRD4 BD1 and BRD4 BD2 proteins
Description: (§1) Fluorescence Polarization (FP) competitive binding studies were carried out using a FAM labeled fluorescent probe, see, e.g., Cpd. No. 350 of US 2014/0256706, to determine binding affinities of representative Compounds of the Disclosure for recombinant BRD4 BD1 and BRD4 BD2 proteins. Equilibrium dissociation constants (Kd) values of the fluorescent probe to BRD4 BD1 and BD2 proteins were determined from protein saturation experiments by monitoring the total fluorescence polarization of mixtures composed with the fluorescent probe at a fixed concentration and proteins with increasing concentrations up to full saturation. Serial dilutions of testing proteins were mixed with the fluorescent probe to a final volume of 200 μl in the assay buffer (100 mM phosphate buffer, pH=6.5, 0.01% Triton X-100 (Sigma, 282103) being added right before assays). Final fluorescent probe concentration was 1.5 nM for both proteins. Plates were incubated at room temperature for 30 minutes with gentle shaking to assure equilibrium. FP values in millipolarization units (mP) were measured using the Infinite M-1000 plate reader (Tecan U.S., Research Triangle Park, N.C.) in Microfluor 1 96-well, black, round-bottom plates (Thermo Scientific, Waltham, Mass.) at an excitation wavelength of 485 nm and an emission wavelength of 530 nm. Kd values of the fluorescent probe, which were calculated by fitting the sigmoidal dose-dependent FP increases as a function of protein concentrations using Graphpad Prism 6.0 software (Graphpad Software, San Diego, Calif.), are 5.5 and 3.0 nM to BDR4 BD1 and 2, respectively.
(§2) The IC50 and Ki values of compounds were determined in a competitive binding experiment. See US 2014/0256706. Mixtures of 10 μl of the tested compounds in assay buffer with 40% Ethylene Glycol and 190 μl of preincubated protein/probe complex solution in the assay buffer (100 mM potassium phosphate, pH 6.5, 0.01% Triton X-100) were added into assay plates which were incubated at room temperature for 30 minutes with gentle shaking. Final concentrations of proteins were 10 and 6 nM in assays for BRD4 BD1 and BD2, respectively. Final probe concentration is 1.5 nM in both assays. Negative controls containing protein/probe complex only (equivalent to 0% inhibition), and positive controls containing only free probes (equivalent to 100% inhibition), were included in each assay plate. FP values were measured as described above. IC50 values were determined by nonlinear regression fitting of the competition curves. Instead of being calculated from IC50 values as described before. Ki values of competitive inhibitors were obtained directly by nonlinear regression fitting as well, based upon the Kd values of the probe to different proteins, and concentrations of the proteins and probes in the competitive assays (US 2014/0256706; Wang, FEBS Lett. 360:111 (1995); Zhang et al., Analytical Biochemistry, 331:138 (2004)).
(§3) Representative compounds in Table 5 were evaluated for their binding affinities to BRD4 BD1 and BD2 proteins using the Competitive Fluorescence-Polarization (FP) Assays described in Example 6, with the data included in Table 6.

[3] = biological target: T2, recombinant BRD4 BD1 (Homo sapiens, UniProt O60885); test: Competitive fluorescence-polarization (FP) binding assay, BRD4 BD1
T2 construct: for recombinant BRD4 BD1 and BRD4 BD2 proteins
Description: as §1, §2, §3

[4] = system: MOLM-13; test: Cell growth inhibition, 4-day proliferation assay, MOLM-13; type: cell-based; settings: Homo sapiens
[5] = MDA-MB-231, WST-8 assay, Table 7, read-out: Cell growth inhibition (IC50 (nM)) MDA-MB-231
[6] = competitive FP, Table 6, read-out: IC50 as determinined in FP assays BRD4 BD2
[7] = competitive FP, Table 6, read-out: IC50 as determinined in FP assays BRD4 BD1
[8] = MOLM-13, WST-8 assay, Table 7, read-out: Cell growth inhibition (IC50 (nM)) MOLM-13
[9] = MOLM-13, 96 h, read-out: Cell IC50 (nM) MOLM13

SMILES	IC50 ([1]; MDA-MB-231, read-out: Cell growth inhibition (IC50 (nM)) MDA-MB-231) [nM]	IC50 [2] [nM]	IC50 [3] [nM]	IC50 [1, 5] [nM]	IC50 [2, 6] [nM]	IC50 [3, 7] [nM]	IC50 [4, 8] [nM]	IC50 [4, 9] [nM]
Cc1c(C#Cc2cnn(CCC(N)=O)c2)sc2c1C(c1ccc(Cl)cc1)=N[C@@H](C)c1nnc(C)n1-2 [Compound 103, (S)-3-(4-((4-(4-chlorophenyl)-3,6,9-trimethyl-6H-thieno[3,2-f][1,2,4]triazolo[4,3-a][1,4]diazepin-2-yl)ethynyl)-1H-pyrazol-1-yl)propanamide]	60 ± 20	15.4	4					
CNC(=O)CCn1cc(C#Cc2sc3c(c2C)C(c2ccc(Cl)cc2)=N[C@@H](C)c2nnc(C)n2-3)cn1 [Compound 104, (S)-3-(4-((4-(4-chlorophenyl)-3,6,9-trimethyl-6H-thieno[3,2-f][1,2,4]triazolo[4,3-a][1,4]diazepin-2-yl)ethynyl)-1H-pyrazol-1-yl)-N-methylpropanamide]				40 ± 10	45.1	4.9		
Cc1c(C#Cc2ccccn2)sc2c1C(c1ccc(Cl)cc1)=N[C@@H](CC(C)C)c1nnc(C)n1-2 [Compound 105, (S)-4-(4-chlorophenyl)-6-isobutyl-3,9-dimethyl-2-(pyridin-2-ylethynyl)-6H-thieno[3,2-f][1,2,4]triazolo[4,3-a][1,4]diazepine]				400 ± 200	26.5	33.9	348	
Cc1c(C#Cc2cccnc2)sc2c1C(c1ccc(Cl)cc1)=N[C@@H](CC(=O)OC(C)(C)C)c1nnc(C)n1-2 [Compound 111, tert-butyl (S)-2-(4-(4-chlorophenyl)-3,9-dimethyl-2-(pyridin-3-ylethynyl)-6H-thieno[3,2-f][1,2,4]triazolo[4,3-a][1,4]diazepin-6-yl)acetate]				98.6	17	4.8	32.7	
Cc1c(C#Cc2cccnc2)sc2c1C(c1ccc(Cl)cc1)=N[C@@H](CC(=O)O)c1nnc(C)n1-2 [Compound 112, (S)-2-(4-(4-chlorophenyl)-3,9-dimethyl-2-(pyridin-3-ylethynyl)-6H-thieno[3,2-f][1,2,4]triazolo[4,3-a][1,4]diazepin-6-yl)acetic acid]				1860	23	86.2	644	
Cc1c(C#Cc2cccnc2)sc2c1C(c1ccc(Cl)cc1)=N[C@@H](CC(N)=O)c1nnc(C)n1-2 [Compound 113, (S)-2-(4-(4-chlorophenyl)-3,9-dimethyl-2-(pyridin-3-ylethynyl)-6H-thieno[3,2-f][1,2,4]triazolo[4,3-a][1,4]diazepin-6-yl)acetamide]				23.9	11.4	4.1	2.7	
CCNC(=O)C[C@@H]1N=C(c2ccc(Cl)cc2)c2c(sc(C#Cc3cccnc3)c2C)-n2c(C)nnc21 [Compound 114, (S)-2-(4-(4-chlorophenyl)-3,9-dimethyl-2-(pyridin-3-ylethynyl)-6H-thieno[3,2-f][1,2,4]triazolo[4,3-a][1,4]diazepin-6-yl)-N-ethylacetamide]				39.4	4.7	8.2	13.8	
Cc1c(C#Cc2cccnc2)sc2c1C(c1ccc(Cl)cc1)=N[C@@H](CC(=O)N1CCN(C)CC1)c1nnc(C)n1-2 [Compound 115, (S)-2-(4-(4-chlorophenyl)-3,9-dimethyl-2-(pyridin-3-ylethynyl)-6H-thieno[3,2-f][1,2,4]triazolo[4,3-a][1,4]diazepin-6-yl)-1-(4-methylpiperazin-1-yl)ethan-1-one]				65.1	6.3	9.6	21.9	
Cc1c(C#Cc2cccnc2)sc2c1C(c1ccc(Cl)cc1)=N[C@@H](CC(=O)N1CCNCC1)c1nnc(C)n1-2 [Compound 116, (S)-2-(4-(4-chlorophenyl)-3,9-dimethyl-2-(pyridin-3-ylethynyl)-6H-thieno[3,2-f][1,2,4]triazolo[4,3-a][1,4]diazepin-6-yl)-1-(piperazin-1-yl)ethan-1-one]				45.3	122	10.4	17.3	
Cc1c(C#Cc2cccnc2)sc2c1C(c1ccc(Cl)cc1)=N[C@@H](CC(=O)N1CCC(O)CC1)c1nnc(C)n1-2 [Compound 117, (S)-2-(4-(4-chlorophenyl)-3,9-dimethyl-2-(pyridin-3-ylethynyl)-6H-thieno[3,2-f][1,2,4]triazolo[4,3-a][1,4]diazepin-6-yl)-1-(4-hydroxypiperidin-1-yl)ethan-1-one]				79.6	10.4	6.3	19.8	
Cc1c(C#Cc2cccnc2)sc2c1C(c1ccc(Cl)cc1)=N[C@@H](CC(=O)N1CCOCC1)c1nnc(C)n1-2 [Compound 118, (S)-2-(4-(4-chlorophenyl)-3,9-dimethyl-2-(pyridin-3-ylethynyl)-6H-thieno[3,2-f][1,2,4]triazolo[4,3-a][1,4]diazepin-6-yl)-1-morpholinoethan-1-one]				103	27.7	6.1	9.2	
Cc1c(C#Cc2ccc(N)nc2)sc2c1C(c1ccc(Cl)cc1)=N[C@@H](CC(=O)N1CCN(C)CC1)c1nnc(C)n1-2 [Compound 120, (S)-2-(2-((6-aminopyridin-3-yl)ethynyl)-4-(4-chlorophenyl)-3,9-dimethyl-6H-thieno[3,2-f][1,2,4]triazolo[4,3-a][1,4]diazepin-6-yl)-1-(4-methylpiperazin-1-yl)ethan-1-one]				9.74	4.9	5.3	9.64	
Cc1c(C#Cc2ccc(N)nc2)sc2c1C(c1ccc(Cl)cc1)=N[C@@H](CC(N)=O)c1nnc(C)n1-2 [Compound 121, (S)-2-(2-((6-aminopyridin-3-yl)ethynyl)-4-(4-chlorophenyl)-3,9-dimethyl-6H-thieno[3,2-f][1,2,4]triazolo[4,3-a][1,4]diazepin-6-yl)acetamide]				21.9	8.4	10.6	4.76	
Cc1c(C#Cc2ccccn2)sc2c1C(c1ccc(Cl)cc1)=N[C@@H](CC(=O)N1CCNCC1)c1nnc(C)n1-2 [Compound 122, (S)-2-(4-(4-chlorophenyl)-3,9-dimethyl-2-(pyridin-2-ylethynyl)-6H-thieno[3,2-f][1,2,4]triazolo[4,3-a][1,4]diazepin-6-yl)-1-(piperazin-1-yl)ethan-1-one]				19.4	34.6	14.2	15.3	
Cc1nnc(C[C@@H]2N=C(c3ccc(Cl)cc3)c3c(sc(C#Cc4ccccn4)c3C)-n3c(C)nnc32)o1 [Compound 129, (S)-2-((4-(4-chlorophenyl)-3,9-dimethyl-2-(pyridin-2-ylethynyl)-6H-thieno[3,2-f][1,2,4]triazolo[4,3-a][1,4]diazepin-6-yl)methyl)-5-methyl-1,3,4-oxadiazole]				6	27.6	9.4		
C#Cc1sc2c(c1C)C(c1ccc(Cl)cc1)=NCc1nnc(C)n1-2 [compound 19, 4-(4-chlorophenyl)-2-ethynyl-3,9-dimethyl-6H-thieno[3,2-f][1,2,4]triazolo[4,3-a][1,4]diazepine]		227	191					2120
C#Cc1sc2c(c1C)C(c1ccc(Cl)cc1)=N[C@@H](C)c1nnc(C)n1-2 [compound 20, (S)-4-(4-chlorophenyl)-2-ethynyl-3,6,9-trimethyl-6H-thieno[3,2-f][1,2,4]triazolo[4,3-a][1,4]diazepine]		41.1	103					16
